Experiments:
[1] = In vitro drug release evaluation of Mitomycin C-eluting devices in artificial urine; type: physicochemical
Procedure: Devices prepared from earlier examples were characterized for drug release profile in artificial urine to predict in vivo behavior in a human bladder. First, artificial urine was prepared according to ASTM F1828, with a modified buffer. Drug-containing samples were placed in individual 20 mL glass vials and 15 mL artificial urine added to cover the sample. This volume of artificial urine was sufficiently above the Mitomycin C solubility limit for each sample so as not to interfere with release analysis. Filled glass vials were placed in a 37° C. incubator on a 1 Hz orbital bed. As predetermined time points, a total changeover of artificial urine was performed, with the exchanged urine analyzed by HPLC to determine total release of Mitomycin C per time period.
HPLC analysis was performed using a Waters ACQUITY ArcHPLC with C18 column using an isocratic method with 71:29 water:methanol mobile phase. Peaks were compared against a standard curve to determine concentration in the sample, and calculated to total percentage release based on fluid volume and loading of Mitomycin C in the sample. […] A secondary release of drug is anticipated as the OC9 and SVG12 materials experience degradation.

[2] = Stability of Mitomycin C in PDLG film (colour change); type: physicochemical; details: evidenced by a change in color from purple to tan
Procedure: SVG12 (Poly-Med, Inc.) and PDLG (Purasorb PDLG 7507, Corbion) were separately dissolved in chloroform, each at 15% concentration (wt/vol %). Solutions were divided to create different drug-loading solutions according to the associated table. In short, lidocaine (Sigma Aldrich) was added to a solution of SVG12 at a concentration of 134 mg drug per 1 gram of SVG12. Dexamethasone was added to a separate solution of PDLG at a concentration of 29 mg drug per 1 gram of PDLG. Mitomycin C was added to a separate solution of PDLG at a concentration of 6.8 mg drug per 1 gram of PDLG. All solutions were held at room temperature on a roller until completely dissolved. The solutions were cast into thin films using a 25-mil film casting blade and allowed to dry.
Drug-loaded films were cut into rectangles and placed on SVG12-only films. In the case of the dexamethasone- and lidocaine-loaded sample, the cut films were stacked one on top of the other. In the case of mytomycin C-loaded films, 4 drug-loaded films were stacked one on top of the other to increase total delivery payload. On top of the drug-eluting film, a separate SVG12-only film was added which was larger in size. Degradable medical devices and/or compositions were clamped between rubber films between glass plates, clamped to apply pressure, and heated at 50° C. for 3 hours to create a seal between the encapsulation films. […]

Compound: CO[C@@]12[C@H](COC(N)=O)C3=C(C(=O)C(C)=C(N)C3=O)N1C[C@@H]1N[C@@H]12 [Mitomycin C]
- Mitomycin C release compared with the free gel ([1]; OC9/PEG 400 gel placed in the core of the stent, 37° C.): Further attenuation
- Mitomycin C release profile after the initial release ([1]; gel containing 2 parts OC9 and 1 part PEG 400, 37° C., after about 3 days): extended release plateau
- total percentage release of Mitomycin C ([1]; gel containing 2 parts OC9 and 1 part PEG 400, 37° C., over about 3 days): 13%
- stability of Mitomycin C in polymer [2]: poor stability

Reference: patent US20220296866A1, “METHODS, DEVICES AND COMPOSITIONS FOR LOCAL DELIVERY” (POLY-MED, INC., priority 2019, published 2022)
